Measured values: article PMC7031696 (Cell chemical biology, 2019)
pIC50: −log10 of the molar value. Values after ≈ are worked out from the molar mass of the structure shown. “Also recorded” adds a separate entry of the source. Where two headings read alike, the source gives them in different places.

How the values were obtained:
[1] = system: 3D7-MR4 trophozoite parasite-infected RBCs; test: Metabolomic profiling (hydrophilic metabolite changes, UHPLC-MS); assay type: cell-based, Plasmodium falciparum
[2] = physchem; conditions: pH 7.4, aqueous buffer, kinetic from dmso stock
[3] = 1.5 h, 500 μM, pH 7.4
[4] = system: asynchronous 3D7-A10 parasite cultures; test: Standard 72-h exposure asexual blood stage susceptibility assay (IC50^72h); assay type: cell-based, Plasmodium falciparum; conditions: Plasmodium falciparum, 3D7, 72 h, read-out: Overall (72hr assay) Mean IC50 (IC50^72h)
[5] = system: Plasmodium falciparum 3D7-A10 parasites; test: Stage specificity assay (8-h exposure of synchronized stages, IC50^8h); assay type: cell-based; conditions: for pIC50: Plasmodium falciparum
[6] = 10 × IC50^72h, 2.5 hr, trophozoites

solubility at 1.5 h [2]: 100 to 500 µM (≈ 53.6 to 268 µg/mL)
Ratio fil./std. (absorbance filtrate/standard) [3]: 0.69
pIC50 [4]: 7.81
Ratio lowest IC50 8hr/IC50 72hr ([5]; 3D7-A10): 1.7
IC50^8h relative to IC50^72h value ([5]; most susceptible stages): ≤ 2 fold
Compound: Clc1ccc2c(N3CCN(CCCN4CCN(c5ccnc6cc(Cl)ccc56)CC4)CC3)ccnc2c1 [Piperaquine, reference compound]
changes within the set of metabolites detected (low fold change group) [1, 6]: did not induce major changes
decreased levels of dCDP, dTMP, guanosine, and guanine [1, 6]: ≥ 2 fold
Log2(fold changes) 3-phosphoglycerate ([1]; metabolite 3-phosphoglycerate, log2 fold change): 0.1576
Log2(fold changes) 4-Pyridoxic acid ([1]; metabolite 4-Pyridoxic acid, log2 fold change): 0.0000
Log2(fold changes) 4-aminobutyrate ([1]; metabolite 4-aminobutyrate, log2 fold change): -0.0347
Log2(fold changes) 4-phosphopantetheine ([1]; metabolite 4-phosphopantetheine, log2 fold change): 0.0000
Log2(fold changes) 4-phosphopantothenate ([1]; metabolite 4-phosphopantothenate, log2 fold change): -0.1578
Log2(fold changes) 5-aminopentanoic acid ([1]; metabolite 5-aminopentanoic acid, log2 fold change): 0.0000
Log2(fold changes) 5-methyl-THF ([1]; metabolite 5-methyl-THF, log2 fold change): 0.0000
Log2(fold changes) 5-phosphoribosyl-1-pyrophosphate ([1]; metabolite 5-phosphoribosyl-1-pyrophosphate, log2 fold change): 0.2840
Log2(fold changes) 6-phospho-D-gluconate ([1]; metabolite 6-phospho-D-gluconate, log2 fold change): 0.0537
Log2(fold change) HVDD ([1]; metabolite HVDD): 0.0000
Log2(fold change) Hydroxyisocaproic acid ([1]; metabolite Hydroxyisocaproic acid): 0.0000
Log2(fold change) IDP ([1]; metabolite IDP): -0.0045
Log2(fold change) IMP ([1]; metabolite IMP): -0.1159
Log2(fold change) Inositol ([1]; metabolite Inositol): 0.0000
Log2(fold change) Isopentyl-PP ([1]; metabolite Isopentyl-PP): 0.0000
Log2(fold change) L-arginino-succinate ([1]; metabolite L-arginino-succinate): 0.0000
Log2(fold change) LD ([1]; metabolite LD): 0.0483
Log2(fold change) Myristoyl/tetradecanoyl-CoA ([1]; metabolite Myristoyl/tetradecanoyl-CoA): 0.0000
Log2(fold change) N-Acetyl-L-alanine ([1]; metabolite N-Acetyl-L-alanine): -0.2552
Log2(fold change) N-acetyl-L-ornithine ([1]; metabolite N-acetyl-L-ornithine): -0.0188
Log2(fold change) N-acetyl-glucosamine-1/6-phosphate ([1]; metabolite N-acetyl-glucosamine-1/6-phosphate): -0.1206
Log2(fold change) N-acetyl-glutamate ([1]; metabolite N-acetyl-glutamate): -0.0276
Log2(fold change) N-acetyl-glutamine ([1]; metabolite N-acetyl-glutamine): 0.0000
Log2(fold change) N-carbamoyl-L-aspartate ([1]; metabolite N-carbamoyl-L-aspartate): -0.1894
Log2(fold change) NAD+ ([1]; metabolite NAD+): -0.0736
Log2(fold change) NADH ([1]; metabolite NADH): 0.1619
Log2(fold change) NADP+ ([1]; metabolite NADP+): 0.0160
Log2(fold change) NADPH ([1]; metabolite NADPH): 0.1653
Log2(fold change) O-acetyl-L-serine ([1]; metabolite O-acetyl-L-serine): 0.0000
Log2(fold change) Octoluse 8/1P ([1]; metabolite Octoluse 8/1P): -0.0774
Log2(fold change) Octoluse Bisphosphate ([1]; metabolite Octoluse Bisphosphate): 0.0393
Log2(fold change) PD ([1]; metabolite PD): -0.0500
Log2(fold change) PE ([1]; metabolite PE): 0.0291
Log2(fold change) PEE ([1]; metabolite PEE): 0.1599
Log2(fold change) PEEK ([1]; metabolite PEEK): 0.3927
Log2(fold change) PVNF ([1]; metabolite PVNF): 0.0618
Log2(fold change) Pyroglutamic acid ([1]; metabolite Pyroglutamic acid): -0.2255
Log2(fold change) Pyrophosphate ([1]; metabolite Pyrophosphate): 0.0000
Log2(fold change) Ribose-5-phosphate ([1]; metabolite Ribose-5-phosphate): -0.0505
Log2(fold change) S-adenosyl-L-homocysteine ([1]; metabolite S-adenosyl-L-homocysteine): -0.1747
Log2(fold change) S-adenosyl-L-methioninamine ([1]; metabolite S-adenosyl-L-methioninamine): 0.0000
Log2(fold change) S-adenosyl-L-methionine ([1]; metabolite S-adenosyl-L-methionine): 0.0000
Log2(fold change) S-methyl-5'-thioadenosine ([1]; metabolite S-methyl-5'-thioadenosine): -5.54e-5
Log2(fold change) SD ([1]; metabolite SD): 0.0815
Log2(fold change) SDL ([1]; metabolite SDL): 0.0000
Log2(fold change) SID ([1]; metabolite SID): 0.0000
Log2(fold change) Sedoheptulose bisphosphate ([1]; metabolite Sedoheptulose bisphosphate): 0.2230
Log2(fold change) Thiamine pyrophosphate ([1]; metabolite Thiamine pyrophosphate): -0.1023
Log2(fold changes) UDP-D-glucose ([1]; metabolite UDP-D-glucose, log2 fold change): -0.0097
Log2(fold changes) UDP-D-glucuronate ([1]; metabolite UDP-D-glucuronate, log2 fold change): 0.0081
Log2(fold changes) UDP-N-acetyl-glucosamine ([1]; metabolite UDP-N-acetyl-glucosamine, log2 fold change): -0.0956
Log2(fold changes) UDP ([1]; metabolite UDP, log2 fold change): -0.8655
Log2(fold changes) UMP ([1]; metabolite UMP, log2 fold change): -0.2304
Log2(fold changes) UTP ([1]; metabolite UTP, log2 fold change): 0.0058
Log2(fold change) hydroxyphenylpyruvate ([1]; metabolite hydroxyphenylpyruvate): 0.0000
Log2(fold change) hydroxyproline/Aminolevulinate ([1]; metabolite hydroxyproline/Aminolevulinate): 0.0000
Log2(fold change) hypoxanthine ([1]; metabolite hypoxanthine): 0.0000
Log2(fold change) indole ([1]; metabolite indole): 0.0000
Log2(fold change) inosine ([1]; metabolite inosine): -0.3997
Log2(fold change) isoleucine ([1]; metabolite isoleucine): 0.1103
Log2(fold change) lactate ([1]; metabolite lactate): -0.4255
Log2(fold change) leucine ([1]; metabolite leucine): -0.0845
Log2(fold change) lysine ([1]; metabolite lysine): 0.0614
Log2(fold change) malate ([1]; metabolite malate): -0.0964
Log2(fold change) maleic acid ([1]; metabolite maleic acid): -0.0992
Log2(fold change) methionine ([1]; metabolite methionine): 0.1002
Log2(fold change) myo-inositol ([1]; metabolite myo-inositol): -0.6606
Log2(fold change) nicotinamide mononucleotide ([1]; metabolite nicotinamide mononucleotide): -0.1524
Log2(fold change) nicotinate ([1]; metabolite nicotinate): -0.4222
Log2(fold change) ornithine ([1]; metabolite ornithine): 0.0000
Log2(fold change) orotate ([1]; metabolite orotate): -0.5698
Log2(fold change) orotidine-5'-phosphate ([1]; metabolite orotidine-5'-phosphate): -0.6109
Log2(fold change) oxaloacetate ([1]; metabolite oxaloacetate): 0.0000
Log2(fold change) p-aminobenzoate ([1]; metabolite p-aminobenzoate): 0.0000
Log2(fold change) p-hydroxybenzoate ([1]; metabolite p-hydroxybenzoate): 0.0000
Log2(fold change) pantothenate ([1]; metabolite pantothenate): -0.1253
Log2(fold change) phenylalanine ([1]; metabolite phenylalanine): -0.1188
Log2(fold change) phenylpyruvate ([1]; metabolite phenylpyruvate): 0.0000
Log2(fold change) phosphoenolpyruvate ([1]; metabolite phosphoenolpyruvate): 0.1409
Log2(fold change) prephenate ([1]; metabolite prephenate): 0.0000
Log2(fold change) proline ([1]; metabolite proline): -0.1490
Log2(fold change) pyridoxine ([1]; metabolite pyridoxine): -0.1465
Log2(fold change) pyruvate ([1]; metabolite pyruvate): -0.2297
Log2(fold change) riboflavin ([1]; metabolite riboflavin): 0.0675
Log2(fold change) ribose ([1]; metabolite ribose): 0.0000
Log2(fold change) ribose-phosphate ([1]; metabolite ribose-phosphate): -0.1362
Log2(fold change) ribulose-5-phosphate ([1]; metabolite ribulose-5-phosphate): -0.0392
Log2(fold change) serine ([1]; metabolite serine): 0.0266
Log2(fold change) sn-glycerol-3-phosphate ([1]; metabolite sn-glycerol-3-phosphate): 0.0600
Log2(fold change) succinate/Methylmalonic acid ([1]; metabolite succinate/Methylmalonic acid): 0.0813
Log2(fold change) succinyl-CoA/methylmalonyl-CoA ([1]; metabolite succinyl-CoA/methylmalonyl-CoA): 0.0000
Log2(fold change) taurine ([1]; metabolite taurine): 0.4424
Log2(fold change) thiamine ([1]; metabolite thiamine): -0.0999
Log2(fold change) threonine/homoserine ([1]; metabolite threonine/homoserine): -0.0376
Log2(fold change) thymidine ([1]; metabolite thymidine): 0.0000
Log2(fold changes) thymine ([1]; metabolite thymine, log2 fold change): 0.0000
Log2(fold changes) trehalose-6-Phosphate ([1]; metabolite trehalose-6-Phosphate, log2 fold change): 0.0000
Log2(fold changes) tryptophan ([1]; metabolite tryptophan, log2 fold change): -0.0757
Log2(fold changes) tyrosine ([1]; metabolite tyrosine, log2 fold change): 0.0866
Log2(fold changes) uridine ([1]; metabolite uridine, log2 fold change): -0.4854
overall activity profile (stages on which active) ([5]; 8-h exposures): activity on all stages
pIC50 ([5]; 3D7, read-out: Early rings Mean IC50 (IC50^8h), 8-h exposure 0–8 hr, 3D7-A10, survival at 60 h): 7.58
pIC50 ([5]; 3D7, read-out: Early trophozoites Mean IC50 (IC50^8h), 8-h exposure 16–24 hr, 3D7-A10, survival at 60 h): 7.56
pIC50 ([5]; 3D7, read-out: Late rings Mean IC50 (IC50^8h), 8-h exposure 8–16 hr, 3D7-A10, survival at 60 h): 7.33
pIC50 ([5]; 3D7, read-out: Late trophozoites Mean IC50 (IC50^8h), 8-h exposure 24–32 hr, 3D7-A10, survival at 60 h): 7.48
pIC50 ([5]; 3D7, read-out: Schizonts Mean IC50 (IC50^8h), 8-h exposure 32–40 hr, 3D7-A10, survival at 60 h): 7.17
Stage of peak activity (Figure 6) ([5]; period when the parasite was most susceptible (lowest IC50^8h)): ring and trophozoite stages; also recorded: rings and trophozoites
